Test results published in patent US9695154B2, “Heteroaryl inhibitors of sumo activating enzyme” (MILLENNIUM PHARMACEUTICALS, INC., priority 2013, dated 2017).

Biological target: T1, recombinant human SAE enzyme (Homo sapiens, UniProt Q9UBT2)
T1 sequence (Q9UBT2 1-640): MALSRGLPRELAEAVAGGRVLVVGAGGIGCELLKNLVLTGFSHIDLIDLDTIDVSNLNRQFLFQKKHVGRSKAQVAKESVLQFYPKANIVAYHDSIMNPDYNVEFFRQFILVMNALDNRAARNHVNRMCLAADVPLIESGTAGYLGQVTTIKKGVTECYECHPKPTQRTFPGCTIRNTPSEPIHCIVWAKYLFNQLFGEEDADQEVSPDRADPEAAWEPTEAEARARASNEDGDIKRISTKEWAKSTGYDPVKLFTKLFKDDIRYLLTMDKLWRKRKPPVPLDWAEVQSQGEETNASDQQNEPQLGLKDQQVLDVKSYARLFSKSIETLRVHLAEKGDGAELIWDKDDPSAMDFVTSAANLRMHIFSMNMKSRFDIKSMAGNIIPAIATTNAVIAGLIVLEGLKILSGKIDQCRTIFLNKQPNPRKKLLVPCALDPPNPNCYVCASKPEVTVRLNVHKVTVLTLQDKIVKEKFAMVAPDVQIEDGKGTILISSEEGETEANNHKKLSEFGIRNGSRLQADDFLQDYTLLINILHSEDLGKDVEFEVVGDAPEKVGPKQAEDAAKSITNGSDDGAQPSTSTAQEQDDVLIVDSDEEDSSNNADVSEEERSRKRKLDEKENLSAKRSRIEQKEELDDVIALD
T1 sequence (Q9UBE0 1-346 partner): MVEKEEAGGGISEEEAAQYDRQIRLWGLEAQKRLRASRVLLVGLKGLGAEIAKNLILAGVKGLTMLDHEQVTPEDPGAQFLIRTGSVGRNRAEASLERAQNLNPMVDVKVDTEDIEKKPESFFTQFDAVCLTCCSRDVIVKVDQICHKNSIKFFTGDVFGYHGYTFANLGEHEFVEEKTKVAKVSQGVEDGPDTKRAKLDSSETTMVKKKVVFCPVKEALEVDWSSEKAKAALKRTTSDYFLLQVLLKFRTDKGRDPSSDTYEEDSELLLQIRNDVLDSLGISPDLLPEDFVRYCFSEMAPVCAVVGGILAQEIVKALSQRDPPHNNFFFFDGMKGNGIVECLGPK
Assay: SAE HTRF Enzyme Assay
Format: biochemical
Details: for IC50: class symbols A-C; for inhibition at 0.111 µM: compound concentration 0.111 μM, read-out: Percent Inhibition
How it was run: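 HTRF signal from Eu-anti-Flag/APC-anti-GST pairs reports Sumo-Flag loaded onto Ubc9-GST by 0.11 nM SAE. Reaction: 0.5 μM ATP, 0.125 μM Sumo-Flag, 0.01 μM Ubc9-GST, 5 mM MgCl2, pH 7.5, 105 min, 24° C. Single-concentration % inhibition or IC50 reported.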

Structure (SMILES)	IC50 [nM]	inhibition at 0.111 µM [%]
Cc1ccc(Cn2ccc(C(=O)c3cncnc3N[C@@H]3C[C@H](COS(N)(=O)=O)[C@@H](O)[C@H]3O)n2)cc1F [Compound I-198, {(1R,2R,3S,4R)-4-[(5-{[1-(3-fluoro-4-methylbenzyl)-1H-pyrazol-3-yl]carbonyl}pyrimidin-4-yl)amino]-2,3-dihydroxycyclopentyl}methyl sulfamate]	< 10	> 99
NS(=O)(=O)OC[C@H]1C[C@@H](Nc2ncncc2C(=O)c2ccn(CC#Cc3ccco3)n2)C[C@@H]1O [Compound I-199, [(1R,2S,4R)-4-{[5-({1-[3-(2-furyl)prop-2-yn-1-yl]-1H-pyrazol-3-yl}carbonyl)pyrimidin-4-yl]amino}-2-hydroxycyclopentyl]methyl sulfamate]	< 10	94
NS(=O)(=O)OC[C@H]1C[C@@H](Nc2ncncc2C(=O)c2ccn(/C=C\c3ccccc3)c2)C[C@@H]1O [Compound I-200, [(1R,2S,4R)-2-Hydroxy-4-{[5-({1-[(Z)-2-phenylvinyl]-1H-pyrrol-3-yl}carbonyl)pyrimidin-4-yl]amino}cyclopentyl]methyl sulfamate]	< 10	98
NS(=O)(=O)OC[C@H]1C[C@@H](Nc2ccncc2C(=O)c2ccn(Cc3cccc(Cl)c3)c2)C[C@@H]1O [Compound I-201, {(1R,2S,4R)-4-[(3-{[1-(3-chlorobenzyl)-1H-pyrrol-3-yl]carbonyl}pyridin-4-yl)amino]-2-hydroxycyclopentyl}methyl sulfamate]	< 10	98
NS(=O)(=O)OC[C@H]1C[C@@H](Nc2ncncc2C(=O)c2ccn(Cc3c(F)c(F)c(F)c(F)c3F)n2)C[C@@H]1O [Compound I-202, {(1R,2S,4R)-2-hydroxy-4-[(5-{[1-(pentafluorobenzyl)-1H-pyrazol-3-yl]carbonyl}pyrimidin-4-yl)amino]cyclopentyl}methyl sulfamate]	10 to 100	83
NS(=O)(=O)OC[C@H]1C[C@@H](Nc2ncncc2C(=O)c2ccn(Cc3ccccc3)n2)C(F)(F)[C@@H]1O [Compound I-203, [(1R,2R,4R)-4-({5-[(1-benzyl-1H-pyrazol-3-yl)carbonyl]pyrimidin-4-yl}amino)-3,3-difluoro-2-hydroxycyclopentyl]methyl sulfamate]	< 10	94
NS(=O)(=O)OC[C@H]1C[C@@H](Nc2ncncc2C(=O)c2ccn(Cc3ccc(Cl)c(Br)c3)n2)[C@H](O)[C@@H]1O [Compound I-204, {(1R,2R,3S,4R)-4-[(5-{[1-(3-bromo-4-chlorobenzyl)-1H-pyrazol-3-yl]carbonyl}pyrimidin-4-yl)amino]-2,3-dihydroxycyclopentyl}methyl sulfamate]	< 10	99
NS(=O)(=O)OC[C@H]1C[C@@H](Nc2ncncc2C(=O)c2ccn(-c3ccccc3)n2)C[C@@H]1O [Compound I-205, [(1R,2S,4R)-2-Hydroxy-4-({5-[(1-phenyl-1H-pyrazol-3-yl)carbonyl]pyrimidin-4-yl}amino)cyclopentyl]methyl sulfamate]	10 to 100	60
NS(=O)(=O)OC[C@H]1C[C@@H](Nc2ncncc2C(=O)c2ccn(Cc3ccccc3Cl)n2)C[C@@H]1O [Compound I-206, {(1R,2S,4R)-4-[(5-{[1-(2-chlorobenzyl)-1H-pyrazol-3-yl]carbonyl}pyrimidin-4-yl)amino]-2-hydroxycyclopentyl}methyl sulfamate]	< 10	96
NS(=O)(=O)OC[C@H]1C[C@@H](Nc2ncncc2C(=O)c2ccn(Cc3cc(Br)ccc3Cl)n2)[C@@H](F)[C@@H]1O [Compound I-207, {(1R,2R,3R,4R)-4-[(5-{[1-(5-bromo-2-chlorobenzyl)-1H-pyrazol-3-yl]carbonyl}pyrimidin-4-yl)amino]-3-fluoro-2-hydroxycyclopentyl}methyl sulfamate]	< 10	99
Cc1cc(Cn2ccc(C(=O)c3cncnc3N[C@@H]3C[C@H](COS(N)(=O)=O)[C@@H](O)[C@@H]3F)c2)on1 [Compound I-208, [(1R,2R,3R,4R)-3-fluoro-2-hydroxy-4-{[5-({1-[(3-methylisoxazol-5-yl)methyl]-1H-pyrrol-3-yl}carbonyl)pyrimidin-4-yl]amino)cyolopentyl]methyl sulfomate]	< 10	95
NS(=O)(=O)OC[C@H]1C[C@@H](Nc2ncncc2C(=O)c2ccn(Cc3ccc(C(F)(F)F)o3)c2)[C@@H](F)[C@@H]1O [Compound I-209, [(1R,2R,3R,4R)-3-fluoro-2-hydroxy-4-({5-[(1-{[5-(trifluoromethyl)-2-furyl]methyl}-1H-pyrrol-3-yl)carbonyl]pyrimidin-4-yl}amino)cyclopentyl]methyl sulfamate]	< 10	99
Cc1ccc(Cn2ccc(C(=O)c3cncnc3N[C@@H]3C[C@H](COS(N)(=O)=O)[C@@H](O)C3)n2)cc1F [Compound I-210, {(1R,2S,4R)-4-[(5-{[1-(3-Fluoro-4-methylbenzyl)-1H-pyrazol-3-yl]carbonyl}pyrimidin-4-yl)amino]-2-hydroxycyclopentyl}methyl sulfamate]	< 10	98
NS(=O)(=O)OC[C@H]1C[C@@H](Nc2ncncc2C(=O)c2ccn(Cc3ccc(F)c(OC(F)(F)F)c3)c2)C[C@@H]1O [Compound I-211, [(1R,2S,4R)-4-{[5-({1-[4-fluoro-3-(trifluoromethoxy)benzyl]-1H-pyrrol-3-yl}carbonyl)pyrimidin-4-yl]amino}-2-hydroxycyclopentyl]methyl sulfamate]	< 10	97
NS(=O)(=O)OC[C@H]1C[C@@H](Nc2ncncc2C(=O)c2ccn(Cc3ccc(F)c(F)c3)n2)C[C@@H]1O [Compound I-212, {(1R,2S,4R)-4-[(5-{[1-(3,4-difluorobenzyl)-1H-pyrazol-3-yl]carbonyl}pyrimidin-4-yl)amino]-2-hydroxycyclopentyl}methyl sulfamate]	< 10	95
NS(=O)(=O)OC[C@H]1C[C@@H](Nc2ncncc2C(=O)c2ccn(Cc3cc(F)cc(C(F)(F)F)c3)c2)C[C@@H]1O [Compound I-213, [(1R,2S,4R)-4-{[5-({1-[3-fluoro-5-(trifluoromethyl)benzyl]-1H-pyrrol-3-yl}carbonyl)pyrimidin-4-yl]amino}-2-hydroxycyclopentyl]methyl sulfamate]	< 10	97
NS(=O)(=O)OC[C@H]1C[C@@H](Nc2ncncc2C(=O)c2ccn(Cc3cn4ccccc4n3)n2)C[C@@H]1O [Compound I-214, {(1R,2S,4R)-2-hydroxy-4-[(5-{[1-(imidazo[1,2-a]pyridin-2-ylmethyl)-1H-pyrazol-3-yl]carbonyl}pyrimidin-4-yl)amino]cyclopentyl}methyl sulfamate]	< 10	98
NS(=O)(=O)OC[C@H]1C[C@@H](Nc2ncncc2C(=O)c2ccn(Cc3cccc(Cl)c3)n2)C[C@@H]1O [Compound I-215, {(1R,2S,4R)-4-[(5-{[1-(3-chlorobenzyl)-1H-pyrazol-3-yl]carbonyl}pyrimidin-4-yl)amino]-2-hydroxycyclopentyl}methyl sulfamate]	< 10	99
Cn1cccc(Cn2ccc(C(=O)c3cncnc3N[C@@H]3C[C@H](COS(N)(=O)=O)[C@@H](O)[C@@H]3F)c2)c1=O [Compound I-216, [(1R,2R,3R,4R)-3-fluoro-2-hydroxy-4-{[5-({1-[(1-methyl-2-oxo-1,2-dihydropyridin-3-yl)methyl]-1H-pyrrol-3-yl}carbonyl)pyrimidin-4-yl]amino}cyclopentyl]methyl sulfamate]	< 10	97
NS(=O)(=O)OC[C@H]1C[C@@H](Nc2ncncc2C(=O)c2ccn(Cc3ccccc3)c2)[C@H](O)[C@@H]1O [Compound I-217, [(1R,2R,3S,4R)-4-({5-[(1-Benzyl-1H-pyrrol-3-yl)carbonyl]pyrimidin-4-yl}amino)-2,3-dihydroxycyclopentyl]methyl sulfamate]	< 10	98
NS(=O)(=O)OC[C@H]1C[C@@H](Nc2ncncc2C(=O)c2ccn(Cc3ccc(Cl)c(OC(F)(F)F)c3)n2)[C@@H](F)[C@@H]1O [Compound I-218, [(1R,2R,3R,4R)-4-{[5-({1-[4-chloro-3-(trifluoromethoxy)benzyl]-1H-pyrazol-3-yl}carbonyl)pyrimidin-4-yl]amino}-3-fluoro-2-hydroxycyclopentyl]methyl sulfamate]	10 to 100	89
